pIC50: −log10 of the molar value.
assay: Inhibition of LPS-induced NO production in mouse BV-2 cells; assay type: functional, cell-based

Compound	pIC50
CSC(=N)N	5.70
C=C[C@@]1(C)CC[C@]2(C)C(=O)[C@@]3(CC[C@H]2C1)[C@H](O)C[C@@H](O)C3(C)C	4.65
C=C[C@@]1(C)CC[C@]2(C)C(=O)[C@@]3(CC[C@H]2C1)[C@H](O)CCC3(C)C	< 4.52

Reference: ChEMBL document CHEMBL4673240, “Euphnerins A and B, Diterpenoids with a 5/6/6 Rearranged Spirocyclic Carbon Skeleton from the Stems of Euphorbia neriifolia” (J Nat Prod, 2020)
